Molecular target: T1, FLK-1 receptor (Mus musculus, UniProt P35918)
T1 construct: expressed in transfected cells; host or cells: NIH3T3 C7#3
Assay: FLK-1 ELISA (kinase activity of the FLK-1 receptor in FLK-1/NIH3T3 cells, VEGF stimulated)
Assay type: cell-based
How it was run: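 NIH3T3 C7#3 cells expressing FLK-1 were seeded at 25.000 cells/well, serum-starved overnight in 0.1% FBS, then treated with compound for two hours at 37°C (final DMSO 0.5%) before VEGF stimulation. Receptor was captured on anti-rabbit IgG-coated ELISA plates bearing affinity-purified anti-FLK-1 antiserum.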

T1 sequence (P35918 20-1345): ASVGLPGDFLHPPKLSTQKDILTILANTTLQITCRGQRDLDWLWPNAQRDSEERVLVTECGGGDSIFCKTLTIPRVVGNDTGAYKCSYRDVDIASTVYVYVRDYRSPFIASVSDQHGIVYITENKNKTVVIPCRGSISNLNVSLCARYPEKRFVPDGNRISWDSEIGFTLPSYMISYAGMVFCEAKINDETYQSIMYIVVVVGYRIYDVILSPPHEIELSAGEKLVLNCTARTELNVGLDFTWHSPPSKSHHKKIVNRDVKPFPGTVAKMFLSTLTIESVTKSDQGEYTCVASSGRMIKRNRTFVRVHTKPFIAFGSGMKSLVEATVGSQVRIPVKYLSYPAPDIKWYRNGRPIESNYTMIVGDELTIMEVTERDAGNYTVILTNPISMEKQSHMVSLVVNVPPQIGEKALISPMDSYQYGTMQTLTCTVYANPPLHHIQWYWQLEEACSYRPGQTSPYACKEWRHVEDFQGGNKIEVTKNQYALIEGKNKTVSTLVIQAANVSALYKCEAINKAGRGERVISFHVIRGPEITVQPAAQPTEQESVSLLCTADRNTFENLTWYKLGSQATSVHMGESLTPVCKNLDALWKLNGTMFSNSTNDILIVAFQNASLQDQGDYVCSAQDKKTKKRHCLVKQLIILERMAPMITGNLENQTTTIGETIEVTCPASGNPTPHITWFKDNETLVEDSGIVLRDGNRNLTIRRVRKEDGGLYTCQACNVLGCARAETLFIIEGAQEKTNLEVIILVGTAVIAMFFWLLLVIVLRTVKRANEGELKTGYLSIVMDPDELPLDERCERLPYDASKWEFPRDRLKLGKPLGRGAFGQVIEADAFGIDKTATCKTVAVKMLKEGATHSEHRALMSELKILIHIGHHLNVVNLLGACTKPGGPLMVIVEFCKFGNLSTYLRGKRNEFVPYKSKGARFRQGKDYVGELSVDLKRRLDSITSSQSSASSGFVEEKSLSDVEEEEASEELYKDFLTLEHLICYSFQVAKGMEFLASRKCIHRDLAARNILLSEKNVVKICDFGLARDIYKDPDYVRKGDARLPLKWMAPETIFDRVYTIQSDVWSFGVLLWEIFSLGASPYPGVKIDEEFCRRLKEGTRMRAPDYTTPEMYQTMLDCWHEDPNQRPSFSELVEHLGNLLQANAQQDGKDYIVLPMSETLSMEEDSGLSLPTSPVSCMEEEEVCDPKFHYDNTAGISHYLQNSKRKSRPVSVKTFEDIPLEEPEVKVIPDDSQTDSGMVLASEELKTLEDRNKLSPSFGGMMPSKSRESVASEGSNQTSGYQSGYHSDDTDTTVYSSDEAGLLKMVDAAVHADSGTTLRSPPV

Question: How did the “Fik Kinase %Inhibition” value turn out when `CC(C)c1cc(C=C2C(=O)Nc3ccc(I)cc32)cc(C(C)C)c1O` [10724/B06] was run?
Answer: Its value is 13.4%.

Source: EP1247803A2, “Indolinone compounds suitable for modulation of protein kinases” (Sugen, Inc., priority 1996, dated 1998)
